Test results taken from patent US20220008455A1, “Compound and Composition for Use in the Preventive and/or Curative Treatment of Diseases of the Central Nervous System Characterised by a Decline in Neuronal Plasticity, in Particular Characterised by a Decline in Synaptic Plasticity” (SYNAPHARM INDUSTRIAL SYNTHESIS, priority 2017, published 2022).

Test system: synaptic responses between Schaffer collaterals and dendrites in the CA1 region
Assay: Long-term potentiation in hippocampal slices of magnesium-deficient rats (restoration of synaptic plasticity)
Assay type: ex vivo, rat
Protocol: [Comparative experiments were conducted on rats to measure the efficiency of synaptic transmission and synaptic plasticity, in particular in order to measure the recovery of synaptic plasticity.
Three groups of rats were made up as follows:
Group 1: control rats on a normal diet;
Group 2: magnesium-deficient rats on a low-magnesium diet;
Group 3: magnesium-deficient rats supplemented with a composition according to the invention containing magnesium N-acetyl taurinate dihydrate containing two intrinsic water molecules (ATAMg dihydrate) at a dose of […] magnesium N-acetyl taurinate dihydrate containing two intrinsic water molecules (in the water). Supplementation was started 40 days after the beginning of the low-magnesium diet and was carried on for 24 days.
The hippocampi of the rats from each group were dissected to measure synaptic plasticity. In particular, synaptic responses were measured between Schaffer collaterals and dendrites in the CA1 region. A baseline was recorded for 30 minutes corresponding to a synaptic response of 40% of the peak response. Then the long-term plasticity process was induced by applying four 100 Hz trains at 5-minute intervals. The increased response was measured over four hours. For every experiment, a control pathway without any high-frequency stimulation was also measured.

CC(=O)NCCS(=O)(=O)[O-].CC(=O)NCCS(=O)(=O)[O-].O.O.[Mg+2] [magnesium N-acetyl taurinate dihydrate]
long-term potentiation (Group 3: magnesium-deficient rats supplemented in the water at 50 mg/kg/hour (50 mg/kg/day) for 24 days, four 100 Hz trains, response measured over four hours, FIG. 3): over 300%
control pathway / baseline stability (Group 3: magnesium-deficient rats supplemented in the water for 24 days, control pathway without high-frequency stimulation, FIG. 3): stabilisation of the baseline
recovery/restoration of synaptic plasticity (comparison of Group 3 (supplemented) with Group 2 (magnesium-deficient rats)): induces the recovery/restoration of synaptic plasticity
